Results reported in patent US12214092B2, “Systems and methods for treating biological fluids” (Cerus Corporation, priority 2017, dated 2025).

Key:
[1] = Amotosalen concentration post-UVA in FCV-spiked platelets, HPLC; format: physicochemical
[2] = S-59 photoconversion in apheresis platelets in 100% plasma, 15 μM S-59, HPLC; format: physicochemical
Text: Additional units were illuminated with the INT-100 device at ˜3.6 J/cm^2 for comparison or maintained as an untreated control.

[3] = Plasma parameters pre- and post-illumination, whole-blood derived plasma, 50 μM amotosalen, ~6.4 J/cm^2
Text: This pool and split format was repeated four times to generate four replicates.

[4] = tested on: P. acnes; experiment: Amotosalen and UV light (265-385 nm LEDs) treatment of P. acnes in plasma, colony forming unit assay; format: cell-based; conditions: 15 μM amotosalen, ~6.4 J/cm^2, plasma
Text: This system comprised single arrays facing (e.g., opposing) a platform positioned for the illumination of biological fluids placed on the platform (see e.g., FIG. 5). System controls provided for adjustment of the LEDs during treatment of the biological fluid samples, controlling both the timing and intensity of illumination by the LEDs to achieve a desired light UV light dose. Evaluation of photochemical conversion, photoproduct formation, pathogen inactivation, and plasma and/or platelet quality parameters are performed for each light source wavelength as described previously. In one study using the device, photochemical inactivation of various bacteria were tested for each of the above-referenced LEDs together with amotosalen. The bacteria included E. coli (Gram negative), S. epidermidis (Gram positive), and P. acnes (anaerobe). As there are known germicidal effects of ultraviolet light with wavelengths in the UVC and UVB range, the study was controlled to determine for each LED wavelength the total inactivation levels, as well as inactivation levels specifically resulting from the UV light (without added amotosalen) or the photochemical treatment process itself.

Structure (SMILES): Cc1oc2c(C)c3oc(=O)cc(C)c3cc2c1COCCN [S-59, 3-(2-aminoethoxymethyl)-2,5,9-trimethylfuro[3,2-g]chromen-7-one]
- S-59 post-UVA concentration ([1]; 15 μM, 4 hr incubation, 340 nm ~3 J/cm^2): 0.6 µM
- S-59 post-UVA concentration ([1]; 15 μM, 8 hr incubation, 340 nm ~3 J/cm^2): 0.6 µM
- S-59 post-UVA concentration ([1]; 15 μM, 8 hr, 340 nm ~3 J/cm^2 Top Only): <1 µM
- S-59 post-UVA concentration ([1]; 15 μM, 8 hr, 340 nm ~3 J/cm^2 Top/Bottom): <1 µM
- S-59 post-UVA concentration ([1]; 15 μM, 24 hr incubation, 340 nm ~3 J/cm^2): 0.6 µM
- S-59 post-UVA concentration ([1]; 15 μM, 24 hr, 340 nm ~3 J/cm^2 Top Only): <1 µM
- S-59 post-UVA concentration ([1]; 15 μM, 24 hr, 340 nm ~3 J/cm^2 Top/Bottom): <1 µM
- S-59 post-UVA concentration ([1]; 30 μM, 4 hr incubation, 340 nm ~3 J/cm^2): 0.8 µM
- S-59 post-UVA concentration ([1]; 30 μM, 8 hr incubation, 340 nm ~3 J/cm^2): 0.9 µM
- S-59 post-UVA concentration ([1]; 30 μM, 8 hr, 340 nm ~3 J/cm^2 Top Only): <1 µM
- S-59 post-UVA concentration ([1]; 30 μM, 8 hr, 340 nm ~3 J/cm^2 Top/Bottom): <1 µM
- S-59 post-UVA concentration ([1]; 30 μM, 24 hr incubation, 340 nm ~3 J/cm^2): 0.8 µM
- S-59 post-UVA concentration ([1]; 30 μM, 24 hr, 340 nm ~3 J/cm^2 Top Only): <1 µM
- S-59 post-UVA concentration ([1]; 30 μM, 24 hr, 340 nm ~3 J/cm^2 Top/Bottom): <1 µM
- S-59 post-UVA concentration ([1]; 90 μM, 4 hr incubation, 340 nm ~3 J/cm^2): 3.8 µM
- S-59 post-UVA concentration ([1]; 90 μM, 8 hr incubation, 340 nm ~3 J/cm^2): 0.9 µM
- S-59 post-UVA concentration ([1]; 90 μM, 24 hr incubation, 340 nm ~3 J/cm^2): 3.3 µM
- S-59 post-UVA concentration ([1]; 150 μM, 0 hr incubation, 340 nm, more than twice ~3 J/cm^2): 2.1 µM
- S-59 post-UVA concentration ([1]; 150 μM, 0 hr, 340 nm Top Only): 10.8 µM
- S-59 post-UVA concentration ([1]; 150 μM, 0 hr, 340 nm Top/Bottom): 7.7 µM
- S-59 concentration post-illumination ([2]; 340 nm LED 1× (~3.6 J/cm^2), <LOQ): 0.86 µM
- S-59 concentration post-illumination ([2]; 340 nm LED 2× (~7.2 J/cm^2), <LOQ): 0.19 µM
- S-59 concentration post-illumination ([2]; 340 nm LED 3× (~10.8 J/cm^2), <LOQ): 0.00 µM
- S-59 concentration post-illumination ([2]; INT-100, ~3.6 J/cm^2): 4.11 µM
- Factor II ([3]; 340 nm, Post-UVA): 84.00 IU/dL
- Factor V ([3]; 340 nm, Post-UVA): 88.83 IU/dL
- Factor VIII ([3]; 340 nm, Post-UVA): 127.18 IU/dL
- Factor X ([3]; 340 nm, Post-UVA): 84.68 IU/dL
- Factor XI ([3]; 340 nm, Post-UVA): 73.93 IU/dL
- Fibrinogen ([3]; 340 nm, Post-UVA): 259.75 mg/dL
- PT ([3]; 340 nm, Post-UVA): 12.03 s
- Protein C ([3]; 340 nm, Post-UVA): 122.33 IU/dL
- Protein S ([3]; 340 nm, Post-UVA): 118.03 IU/dL
- Total Protein ([3]; 340 nm, Post-UVA): 72.43 mg/mL
- aPTT ([3]; 340 nm, Post-UVA): 33.95 s
- pCO2 @ 37° C. ([3]; 340 nm, Post-UVA): 66.75 mmHg
- pH @ 37° C. ([3]; 340 nm, Post-UVA): 7.20
- pO2 @ 37° C. ([3]; 340 nm, Post-UVA): 42.88 mmHg
- Factor II ([3]; 340 nm, Pre-UVA): 93.43 IU/dL
- Factor V ([3]; 340 nm, Pre-UVA): 97.08 IU/dL
- Factor VIII ([3]; 340 nm, Pre-UVA): 165.50 IU/dL
- Factor X ([3]; 340 nm, Pre-UVA): 96.68 IU/dL
- Factor XI ([3]; 340 nm, Pre-UVA): 85.65 IU/dL
- Fibrinogen ([3]; 340 nm, Pre-UVA): 290.00 mg/dL
- PT ([3]; 340 nm, Pre-UVA): 11.68 s
- Protein C ([3]; 340 nm, Pre-UVA): 133.90 IU/dL
- Protein S ([3]; 340 nm, Pre-UVA): 119.00 IU/dL
- Total Protein ([3]; 340 nm, Pre-UVA): 72.13 mg/mL
- aPTT ([3]; 340 nm, Pre-UVA): 31.15 s
- pCO2 @ 37° C. ([3]; 340 nm, Pre-UVA): 67.38 mmHg
- pH @ 37° C. ([3]; 340 nm, Pre-UVA): 7.19
- pO2 @ 37° C. ([3]; 340 nm, Pre-UVA): 131.80 mmHg
- Factor II ([3]; INT-100, Post-UVA): 110.93 IU/dL
- Factor V ([3]; INT-100, Post-UVA): 90.25 IU/dL
- Factor VIII ([3]; INT-100, Post-UVA): 108.85 IU/dL
- Factor X ([3]; INT-100, Post-UVA): 84.53 IU/dL
- Factor XI ([3]; INT-100, Post-UVA): 76.63 IU/dL
- Fibrinogen ([3]; INT-100, Post-UVA): 261.50 mg/dL
- PT ([3]; INT-100, Post-UVA): 12.28 s
- Protein C ([3]; INT-100, Post-UVA): 109.30 IU/dL
- Protein S ([3]; INT-100, Post-UVA): 121.80 IU/dL
- Total Protein ([3]; INT-100, Post-UVA): 70.35 mg/mL
- aPTT ([3]; INT-100, Post-UVA): 33.98 s
- pCO2 @ 37° C. ([3]; INT-100, Post-UVA): 60.68 mmHg
- pH @ 37° C. ([3]; INT-100, Post-UVA): 7.24
- pO2 @ 37° C. ([3]; INT-100, Post-UVA): 41.55 mmHg
- Factor II ([3]; INT-100, Pre-UVA): 91.45 IU/dL
- Factor V ([3]; INT-100, Pre-UVA): 98.55 IU/dL
- Factor VIII ([3]; INT-100, Pre-UVA): 154.25 IU/dL
- Factor X ([3]; INT-100, Pre-UVA): 92.40 IU/dL
- Factor XI ([3]; INT-100, Pre-UVA): 89.55 IU/dL
- Fibrinogen ([3]; INT-100, Pre-UVA): 278.75 mg/dL
- PT ([3]; INT-100, Pre-UVA): 11.48 s
- Protein C ([3]; INT-100, Pre-UVA): 98.55 IU/dL
- Protein S ([3]; INT-100, Pre-UVA): 111.88 IU/dL
- Total Protein ([3]; INT-100, Pre-UVA): 80.18 mg/mL
- aPTT ([3]; INT-100, Pre-UVA): 30.35 s
- pCO2 @ 37° C. ([3]; INT-100, Pre-UVA): 69.20 mmHg
- pH @ 37° C. ([3]; INT-100, Pre-UVA): 7.22
- pO2 @ 37° C. ([3]; INT-100, Pre-UVA): 141.95 mmHg
- Log reduction from S-59 ([4]; 265 nm): 1.60 log
- Log reduction total ([4]; 265 nm): 6.03 log
- Log reduction from S-59 ([4]; 280 nm): 0.71 log
- Log reduction total ([4]; 280 nm): 1.09 log
- Log reduction from S-59 ([4]; 310 nm): 5.67 log
- Log reduction total ([4]; 310 nm): 6.99 log
- Log reduction from S-59 ([4]; 325 nm): 6.54 log
- Log reduction total ([4]; 325 nm): 6.69 log
- Log reduction from S-59 ([4]; 340 nm): 6.78 log
- Log reduction total ([4]; 340 nm): 6.99 log
- Log reduction from S-59 ([4]; 365 nm): 6.67 log
- Log reduction total ([4]; 365 nm): 6.99 log
- Log reduction from S-59 ([4]; 385 nm): 1.64 log
- Log reduction total ([4]; 385 nm): 1.97 log
